The target of series [1] is sodium-dependent serotonin transporter (SERT) (Homo sapiens, UniProt P31645). The conditions noted are these: reported for naturally occurring material from Sceletium tortuosum; cited from earlier work.
Sequence of sodium-dependent serotonin transporter (SERT) (P31645 whole entry, species assumed): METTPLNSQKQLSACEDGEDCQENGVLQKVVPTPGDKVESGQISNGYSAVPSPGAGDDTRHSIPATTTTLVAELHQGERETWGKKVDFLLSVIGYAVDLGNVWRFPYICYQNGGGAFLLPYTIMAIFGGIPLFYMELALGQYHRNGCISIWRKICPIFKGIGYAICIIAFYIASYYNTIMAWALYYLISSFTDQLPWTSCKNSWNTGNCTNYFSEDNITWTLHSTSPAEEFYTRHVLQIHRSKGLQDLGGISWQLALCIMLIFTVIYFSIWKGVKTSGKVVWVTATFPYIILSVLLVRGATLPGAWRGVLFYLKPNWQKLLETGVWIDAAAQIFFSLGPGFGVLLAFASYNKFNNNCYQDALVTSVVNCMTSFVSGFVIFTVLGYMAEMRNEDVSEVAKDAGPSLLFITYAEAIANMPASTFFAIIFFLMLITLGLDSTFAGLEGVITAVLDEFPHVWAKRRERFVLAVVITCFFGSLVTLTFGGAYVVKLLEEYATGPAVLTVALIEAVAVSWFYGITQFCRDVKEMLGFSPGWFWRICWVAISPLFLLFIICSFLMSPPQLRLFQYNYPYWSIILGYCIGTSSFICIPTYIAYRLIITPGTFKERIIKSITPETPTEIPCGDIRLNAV
Series [2] is described as follows: Solubility of Freeform Form A in solvents. In kind it is physicochemical. From the text:
Freeform Form A was a gum material. The material had the solubility shown below:

In the case of `COc1ccc([C@@]23CCC(=O)C[C@@H]2N(C)CC3)cc1OC` [Compound 1, (3aS,7aS)-3a-(3,4-dimethoxyphenyl)-1-methyl-2,3,4,5,7,7a-hexahydroindol-6-one], the “serotonin (5-HT) uptake inhibition, in words” value in series [1] is listed as “serotonin (5-HT) uptake inhibitory activity”.

On to `COc1ccc([C@@]23CCC(=O)C[C@@H]2N(C)CC3)cc1OC` [Freeform Form A, (3aS,7aS)-3a-(3,4-dimethoxyphenyl)-1-methyl-2,3,4,5,7,7a-hexahydroindol-6-one], for which the “Solubility (mg/mL)” value in series [2] (solvent 1,4-Dioxane) is recorded as “S > 40.0 mg/mL”; in series [2] (solvent 2-MeTHF) it was “S > 40.0 mg/mL”; in series [2] (solvent ACN) it was “S > 44.0 mg/mL”; in series [2] (solvent Acetone) it was “S > 40.0 mg/mL”; in series [2] (solvent CPME), “S > 40.0 mg/mL”; in series [2] (solvent DCM), “S > 42.0 mg/mL”. In addition, the “Solubility (mg/mL)” value in series [2] (solvent EtOH) is on record as “S > 42.0 mg/mL”; in series [2] (solvent H2O), “S > 42.0 mg/mL”; in series [2] (solvent IPA) it was “S > 38.0 mg/mL”; in series [2] (solvent IPAc), “S > 36.0 mg/mL”; in series [2] (solvent MIBK), “S > 38.0 mg/mL”; in series [2] (solvent MTBE), “S > 40.0 mg/mL”. In addition, the “Solubility (mg/mL)” value is reported as “S > 36.0 mg/mL” in series [2] (solvent MeOH) and “S > 44.0 mg/mL” in series [2] (solvent THF).

The record behind these values is patent US20260049055A1, “SOLID FORMS OF […] […] USES THEREOF” (Sensorium Therapeutics, Inc., priority 2022, published 2026).
